{
  "source": "patent US20120263764A1",
  "about": "“COMPOSITIONS AND METHODS FOR INHIBITING AND/OR MODULATING EFFECTOR T-CELLS INVOLVED IN INFLAMMATORY NEURODEGENERATIVE DISEASE” (Revalesio Corporation, priority 2011, published 2012)",
  "assay": "Body weight in MBP EAE rat model",
  "type": "in vivo, Lewis rats",
  "conditions": "Group 2F; at study termination",
  "text": "Body weight loss can be the first sign of disease initiation, while a sudden marked weight gain tends to accompany remission of EAE symptoms. Therefore, determination of individual body weights of animals was made shortly before EAE induction on study day 0 (study commencement) and thereafter on a daily basis throughout the entire 21-day observation period.\nThis working EXAMPLE discloses the weight change of rats subjected to the experiment described in Example 7. Body weight loss can be the first sign of disease initiation, while a sudden marked weight gain tends to accompany remission of EAE symptoms. Therefore, determination of individual body weights of animals was made shortly before EAE induction on study day 0 (study commencement) and on a daily basis throughout the 21-day observation period.",
  "data": [
    {"molecule": "C[C@@H]1C[C@H]2[C@@H]3CCC4=CC(=O)C=C[C@]4(C)[C@@]3(F)[C@@H](O)C[C@]2(C)[C@@]1(O)C(=O)CO", "note": "[Dexamethasone]", "values": [
      {"measurement": "mean body weight lost", "value": 2, "unit": "%"}
    ]}
  ]
}
